For series [1] the following is noted: cited from earlier work.
The nature of series [2]: Storage stability of levothyroxine in DMSO formulations. It counts as physicochemical. The following applies: 5 mg/mL in DMSO without ionization stabilizing excipient; even in refrigeration. The protocol:
These formulation studies are described in detail in U.S. Appl. No. 63/380,090, entitled “Stable Levothyroxine Formulations in Aprotic Polar Solvents,” filed on even day herewith, which is incorporated herein by reference in its entirety. […] The overall moisture content of the formulation was ˜5% when prepared using 1.0 N H2SO4. The moisture content of this formulation was due almost entirely to the added sulfuric acid (with a minor contribution from the trehalose dihydrate), which at 26 mM (from a 1.0 N (0.5 M) stock solution) results in a moisture content ˜5% (w/w). When prepared using concentrated acid (e.g., 10 N), the overall moisture content of the formulation could be reduced to about ˜1% without any significant impact on storage stability. Other exemplary formulations were prepared at a concentration of 5 mg/mL levothyroxine in DMSO that had been first acidified with about 13-15 mM sulfuric acid. These formulations were then used in levothyroxine pharmacokinetic pre-clinical studies using laboratory animals.

Several values for one entry are separate records, joined by “and”; a condition that tells them apart may be missing. Equal values may be shown once.

For `CCOc1ccccc1OCCN[C@H](C)Cc1ccc(OC)c(S(N)(=O)=O)c1` [Tamsulosin, tamsulosin], the “solubility in DMSO” value in series [1] (DMSO) was 100 mM and > 40 mg/ml. In addition, the “solubility in aqueous/physiological environments” value in series [1] (aqueous/physiological) is ~10 mM and 4 mg/ml.
With `N[C@@H](Cc1cc(I)c(Oc2cc(I)c(O)c(I)c2)c(I)c1)C(=O)O` [levothyroxine], the “stability when solubilized directly in DMSO” value in series [2] is “discolor and form degradation products within one day of storage”.

Source of the values: patent publication US20240148678A1, “SUSTAINED RELEASE INJECTABLE THERAPEUTIC FORMULATIONS USING APROTIC POLAR SOLVENTS” (Xeris Pharmaceuticals, Inc., priority 2022, published 2024).
